Source: patent publication US9622953B2, “Cosmetic use of catalytic oxidation compounds chosen from porphyrins, phthalocyanines and/or porphyrazines as deodorant agent” (L'Oreal, priority 2011, dated 2017)

Experiments:
[1] = Test 1: Oxidation of 2,2,6,6-tetramethylpiperidine (TEMP); details: phosphate buffer pH 7.4, 50 mM TEMP, porphyrin 0.5 μM, oxygen saturated, daylight, 1 hour, EPR
Method: (§1) The oxidizing agent used during this test is dissolved oxygen.
A solution comprising a phosphate buffer (pH 7.4), 50 mM of the compound 2,2,6,6-tetramethylpiperidine (TEMP) and a porphyrin compound at 0.5 μM is prepared. The solution is saturated with oxygen. The solution is subjected to daylight.
After 1 hour, electron paramagnetic resonance spectrometry (EPR) is performed on the oxidized form of the compound 2,2,6,6-tetramethylpiperidine (TEMP), which corresponds to the compound (2,2,6,6-tetramethylpiperidin-1-yl)oxyl, known as TEMPO.
With a porphyrin compound according to the invention, the appearance of the compound TEMPO is observed after bringing into contact for 1 hour.

[2] = Blind sniff test of incubated flasks of human sweat by a panel of 8 testers; details: 1 mg of porphyrin compound in flask of sweat, same trial as Example 1
Method: 1) Human sweat is collected. During this collecting, the sweat is frozen.
2) The sweat is subsequently placed in a flask, so that there is an air phase above, once the flask is closed. 1 gram of sweat is placed in a 20 ml flask.
3) The porphyrin compound is placed in the flask in a proportion of 0.1 mg.
4) The flask is closed and incubated at 37° C. A test is then carried out which consists in sniffing the flask at t=4 hours and at t=16 hours.
The test is carried out blind and in comparison with a flask of sweat not comprising additive, a flask of sweat comprising a porphyrin compound not included in the present invention, such as cupric chlorophyllin, and a flask of sweat comprising 0.1 mg of triclosan.
The test is carried out by a panel composed of 8 testers who record their impression in terms of odorous intensity and of quality (ranging from neutral up to repulsive) and the mean of the impressions is produced.
1 mg of each of the porphyrin compounds is introduced into flasks comprising sweat collected in the same way as in Example 1.

[3] = Test 3: Activation of Hydrogen Peroxide; details: 1 mM porphyrin in 10-volume hydrogen peroxide, spontaneous pH, daylight
Method: 1 mM of a porphyrin compound is placed in 10-volume hydrogen peroxide, spontaneous pH.
The solution is subjected to daylight.
The content of hydrogen peroxide is then assayed. The porphyrin compound is regarded as within the invention if it reduces the amount of hydrogen peroxide by factor of at least 2 (5 volumes or less).

[4] = Test 2: Oxidation of DMPO; details: aqueous solution pH=7, 100 mM DMPO, porphyrin 100 μM, oxygen saturated, daylight, 1 hour, EPR
Method: as §1
An aqueous solution, pH=7, comprising 100 mM of DMPO and a porphyrin compound at 100 μM, is prepared. The solution is saturated with oxygen. The solution is subjected to daylight.
After 1 hour, electron paramagnetic resonance spectrometry (EPR) is performed on the oxidized form of the compound 5,5-dimethyl-1-pyrroline N-oxide, known as DMPO-OH.
More specifically, the EPR spectrum is characterized by a hyperfine coupling constant of a^N=a^H=14.6 G.

Row | Compound | formation of the compound TEMPO (response to Test 1) [1] | effectiveness in the sweat flask odour trial [2] | reduction of the amount of hydrogen peroxide by factor of at least 2 (response to Test 3) [3] | formation of DMPO-OH (response to Test 2) [4]
1 | O=S(=O)(O)c1ccc(-c2c3nc(c(-c4ccc(S(=O)(=O)O)cc4)c4ccc([nH]4)c(-c4ccc(S(=O)(=O)O)cc4)c4nc(c(-c5ccc(S(=O)(=O)O)cc5)c5ccc2[nH]5)C=C4)C=C3)cc1 [anionic porphyrin compound] | responds positively | effective | responds positively | 
2 | C[n+]1ccc(-c2c3nc(c(-c4cc[n+](C)cc4)c4ccc([nH]4)c(-c4cc[n+](C)cc4)c4nc(c(-c5cc[n+](C)cc5)c5ccc2[nH]5)C=C4)C=C3)cc1 [cationic porphyrin compound] | responds positively | effective |  | responds positively
3 | copper chlorophyllin [reference compound] | does not result in the formation of the compound TEMPO |  |  | 
